Measurements: PubChem BioAssay (NCI)
“And” between values parts separate entries of the source, which are not always exact repeats. Equal values may be shown once.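 Method: 48-hour compound exposure of cells in 96-well plates, five concentrations, linear interpolation of endpoints. GI50 = concentration required for 50% inhibition of growth. TGI is the concentration that stops growth completely.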

Columns and labels:
Test in all cases: DTP human tumour cell line panel, 48 h
SK-MEL-28 melanoma = test system: SK-MEL-28 melanoma
ACHN renal = test system: ACHN renal
RXF 393 renal = test system: RXF 393 renal
KM12 colon = test system: KM12 colon
SR leukemia = test system: SR leukemia
786-0 renal = test system: 786-0 renal
EKVX NSCLC = test system: EKVX NSCLC
A549 NSCLC = test system: A549 NSCLC
HT29 colon = test system: HT29 colon
CAKI-1 renal = test system: CAKI-1 renal

SMILES	TGI (SK-MEL-28 melanoma) [µM]	TGI (ACHN renal)	TGI (RXF 393 renal) [µM]	TGI (KM12 colon)	TGI (SR leukemia) [µM]	TGI (786-0 renal)	TGI (EKVX NSCLC) [µM]	TGI (A549 NSCLC) [µM]	TGI (HT29 colon) [µM]	TGI (CAKI-1 renal) [µM]	GI50 (SK-MEL-28 melanoma) [µM]	GI50 (ACHN renal)	GI50 (RXF 393 renal) [µM]	GI50 (KM12 colon)	GI50 (SR leukemia) [µM]	GI50 (786-0 renal)	GI50 (EKVX NSCLC)	GI50 (A549 NSCLC) [µM]	GI50 (HT29 colon) [µM]	GI50 (CAKI-1 renal) [µM]
CCN(CC)CCn1c2ccccc2c(=O)c2c(O)ccc(O)c21	48.6	57.8 µM	35.9	> 74.8 µM	26.2	53.8 µM	> 46.4	> 100	59.8	61.5										
Cc1cc(Cc2cc(C)cc(C(C)(C)C)c2O)c(O)c(Cc2cc(C)cc(C(C)(C)C)c2O)c1	16.7	11.3 µM	8.21	10 µM	> 28.6	9.09 µM	9	11.3	7.78	13.5										
COc1cc(NC(=O)CSc2nc3ccc(C)cc3c(=O)n2Cc2ccccc2)cc(OC)c1OC	59.7	> 100 µM	8.23	> 100 µM	> 100	14.6 µM	> 100	> 100	> 100	> 100	7.04	3.49 µM	2.24	29.9 µM	52.7	3.2 µM	8.59 µM	10.5	> 100	5.08
COc1cc2c(cc1OC)[C@H]1C(COC(=O)c3ccccc3)CSC(=Nc3ccccc3)N1CC2 (stereo not given in full)	> 100	> 100 µM	> 100	> 100 µM	> 100	> 100 µM	> 100	> 100	> 100	> 100										
COc1cc(/C=N/NC(=O)c2cnn3c2NC(c2ccccc2)C3)ccc1Oc1ccccc1 (stereo not given)	6.94	7.31 µM	4.53	3 µM	10	5.65 µM	14.3	5	1.76	10.2	1.38	1.33 µM	1.5	0.528 µM	0.488	1.19 µM	2.03 µM	1.5	0.432	0.996
CN(C)CC1C(=O)O[C@H]2[C@H]1CC/C(COC(=O)c1cc3ccccc3[nH]1)=C\CC[C@@]1(C)O[C@@H]21 (stereo not given in full)	5.24	2.48 µM	2.89	10.8 µM	9.89	4.88 µM	12.5	14.3	2.57	2.85	2.17	0.923 µM	1.4	3.23 µM	1.55	1.69 µM	3.16 µM	4.62	0.671	1.31
CC[C@@]1(OC(=O)CN)C(=O)OCc2c1cc1n(c2=O)Cc2cc3c(N)cccc3nc2-1	> 20.1	0.0287 µM	0.476	1.92 µM		0.203 µM	> 100	1.77	> 100	0.582	0.557	< 0.01 µM	0.0352	0.158 µM	< 0.01	< 0.01 µM	0.265 µM	< 0.0129	0.0346	< 0.01
Oc1ccccc1C=Nc1nc(SCc2ccccc2)nc2[nH]ncc12	> 100	> 100 µM	> 100	> 100 µM	> 100	> 100 µM	> 100	> 100	> 100	> 100	82.8	41.7 µM	32.5	37.5 µM	22.5	89.4 µM	> 100 µM	65.2	54.6	47.6
COc1ccc(-n2cc(-c3cc(OC)c(OC)c(OC)c3)nc2SCc2ccccc2)cc1OC	> 100	> 100 µM	> 100	> 100 µM	> 100	> 100 µM	> 100	> 100	> 100	> 100	> 100	> 92.9 µM	56.3	> 100 µM	44.1	> 100 µM	57.9 µM	48.8	> 100	> 96.6
N#CC1=C(N)Oc2c(sc3c(Br)cccc23)C1c1ccc(Br)cc1 (stereo not given)	13.3	9.37 µM	6.18	10.2 µM	5.91	2.96 µM	20.5	2.23	1.21	22.2	1.44	0.912 µM	1.97	0.434 µM	0.208	0.776 µM	3.31 µM	0.424	0.315	1.97
CN1C(=O)C(CC(=O)O)NC1=S (stereo not given)	> 100	> 100 µM	> 100	> 100 µM	> 100	> 100 µM	> 100	> 100	> 100	> 100										
C/C=C1/CCC2c3[nH]c4ccccc4c3CCN2C1 (stereo not given)	> 100	> 100 µM	> 100	> 100 µM	> 100	> 100 µM	> 100	> 100	> 100	> 100										
Oc1[nH]c2c(Br)cccc2c1C1=Nc2ccccc2/C1=N/OCCN1CCCC1	5.49	2.12 µM and 3.8 µM	9.66	> 100 µM	1.77	2.58 µM and 4.31 µM	> 100		6.6	2.24	1.92	0.414 µM and 0.379 µM	0.942	0.708 µM and 0.501 µM	0.373	0.648 µM and 0.942 µM	1.31 µM and 2.09 µM	1.91	0.561	0.332
CN(C)C=[N+]=[N-]		> 100 µM	> 100	> 100 µM	> 100	> 100 µM	> 100	> 100	> 100	> 100										
C=C1C(=O)OC2C=C(CCC(C)=O)C(C)C(OC(C)=O)CC12 (stereo not given)	20.8	19.7 µM	5.42	30.5 µM	52.9	21.4 µM	26	55.4	27.1	23.6										
CCCC/C=C1\CCC(C)(CN(C)C)C1=O (stereo not given)	> 100	> 100 µM	> 100	> 100 µM	> 100	> 100 µM	> 100	> 100	> 100	> 100										

SMILES	TGI (SK-MEL-28 melanoma) [µM]	TGI (ACHN renal)	TGI (RXF 393 renal) [µM]	TGI (KM12 colon)	TGI (SR leukemia) [µM]	TGI (786-0 renal)	TGI (EKVX NSCLC) [µM]	TGI (A549 NSCLC) [µM]	TGI (HT29 colon) [µM]	TGI (CAKI-1 renal) [µM]	GI50 (SK-MEL-28 melanoma) [µM]	GI50 (ACHN renal)	GI50 (RXF 393 renal) [µM]	GI50 (KM12 colon)	GI50 (SR leukemia) [µM]	GI50 (786-0 renal)	GI50 (EKVX NSCLC)	GI50 (A549 NSCLC) [µM]	GI50 (HT29 colon) [µM]	GI50 (CAKI-1 renal) [µM]
CC(=O)OCC(=O)[C@@]12OC(C)(C)O[C@@H]1C[C@H]1[C@@H]3CC=C4C[C@@H](O)CC[C@]4(C)[C@H]3CC[C@@]12C	> 100	> 100 µM	61.4	> 100 µM	> 100	> 100 µM	> 100	> 100	> 100	> 100										
Clc1ccc2nnnn2n1	63	19.5 µM	8.65	4.87 µM	8	> 100 µM	62.3	> 100	8.03	22.8	12.3	5.27 µM	2.75	2.08 µM	1.46	3.73 µM	18 µM	13.9	2.93	10.1
CC(C)COCC(CN(Cc1ccccc1)c1ccccc1)N1CCCC1 (stereo not given)	13.8	17 µM	6.37	13.7 µM	5.34	12.8 µM	15.1	13.5	4.17	13.7	3.48	4.99 µM	1.76	3.54 µM	2.08	3.46 µM	2.85 µM	3.48	1.46	3.25
N#CCCN(c1ccc(C=Nc2ccccc2Cl)cc1)S(=O)(=O)c1ccccc1	> 100	> 100 µM	> 100	> 100 µM	> 100	> 100 µM	> 100	> 100	> 100	> 100										
Cc1cc2[nH]c(=O)c3c4ccccc4cn3c2cc1C	35.1	23.5 µM	27.4	21.5 µM	5.75	22.7 µM	31.9	37.7	> 100	17.8	14.8	10.2 µM	12	7.06 µM	2.6	10.7 µM	13.6 µM	14.8	6.09	5.33
CN1CC[C@]2(C)c3cc(O)ccc3CC3CCCC1C32C (stereo not given in full)	> 100	> 100 µM	> 100	> 100 µM	> 100	> 100 µM	> 100	> 100	> 100	> 100										
O=C(O)CCC(NC(=O)c1ccccc1)C(=O)O (stereo not given)	> 100	> 100 µM	> 100	> 100 µM	> 100	> 100 µM	> 100	> 100	> 100	> 100										
O=C(c1ccccc1)[C@@H]1C[C@H](Sc2ccccc2)c2cc(Cl)ccc2N1	58.9	> 100 µM	26.5	> 100 µM	> 100	33.6 µM	50.3	> 100	56.3	> 100										
Cc1ccc2c(c1)C(C)Cc1c(Cl)ncnc1N2C (stereo not given)	48.7	> 100 µM	8.62	7.98 µM	> 100	17.8 µM	26.3	> 100	47.2	> 100	0.905	3.7 µM	2.87	2.12 µM	3.53	3.25 µM	2.33 µM	4.26	3.48	3.22
CNC(=O)CC1NC(=O)c2csc(n2)-c2ccc(-c3nc(C4=NC(C(=O)N5CCCC5C(N)=O)CO4)cs3)nc2-c2csc(n2)-c2csc(n2)C(C(C)C)NC(=O)CNC(=O)c2csc(n2)C(C(C)C)NC(=O)c2nc1sc2C (stereo not given)	> 25	> 25 µM	> 25	4.34 µM and > 25 µM		> 25 µM	> 25	> 25		> 25		> 25 µM	> 25	> 25 µM	< 0.001	> 25 µM	> 25 µM	> 25	< 0.001	> 25
CC(O)c1ccc[n+](Cc2ccccc2)c1 (stereo not given)	> 400	> 400 µM	> 400	> 400 µM	> 400	> 400 µM	> 400	> 400	> 400	> 400										
O=C(O)C1C(C(=O)O)C23CC2(C(=O)O)C2(C(=O)O)CCC3=C3CCCC312 (stereo not given)	29.9	59.2 µM	37.7	88.4 µM	6.6	> 100 µM	54.3	> 100	44.8	81.9										
CCN1C(=O)N(c2ccccc2)C2NC(=S)N(/N=C/C=C/c3ccccc3)C21 (stereo not given)	> 100	> 100 µM	> 100	> 100 µM	> 100	> 100 µM	> 100	> 100	> 100	> 100	1.74	0.763 µM	0.345	0.358 µM	0.114	0.521 µM	0.619 µM	0.417	0.295	0.269
COC(=O)C1=C(C(=O)OC)SC(=C(Cl)C(=S)Nc2ccccc2O)S1	> 50	> 50 µM	29.5	> 50 µM	> 50	10.1 µM		> 50	> 50	21.8	> 50	16.3 µM	11.7	0.132 µM	26.1	0.686 µM		21.2	30.2	9.63
COC(=O)C1CCCN1C(=O)[C@@H]1CCCN1C(=O)[C@H](Cc1c[nH]c2ccccc12)NC(=S)Nc1cc(C(F)(F)F)cc(C(F)(F)F)c1 (stereo not given in full)	10.7		4.4	4.03 µM	5.03	6.86 µM	7.83	6.92	3.44	11.1	3.54		1.78	1.92 µM	1.92	2.52 µM	1.91 µM	1.98	1.89	2.73
